Laboratory results published in ChEMBL document CHEMBL4359919, “Discovery and synthesis of 3- and 21-substituted fusidic acid derivatives as reversal agents of P-glycoprotein-mediated multidrug resistance” (Eur J Med Chem, 2019).
Active and inactive are the calls of the source. No cut-off for these calls is given here.

Experiments:
[1] = molecular target: T1, ATP-dependent translocase ABCB1 (Homo sapiens, UniProt P08183); experiment: Reversal of P-gp-mediated multidrug resistance in human KBV cells assessed as potentiation of paclitaxel-induced cytotoxicity by measuring cell survival at 5 uM after 72 hrs by MTT assay (reference value: 100.58 +/- 7.78%); type: cell-based
[2] = Cytotoxicity against human KBV cells assessed as cell survival at 5 uM after 72 hrs by MTT assay relative to control; type: cell-based; details: read-out: Survival
[3] = molecular target: T1, ATP-dependent translocase ABCB1; experiment: Reversal of P-gp-mediated multidrug resistance in human KBV cells assessed as potentiation of paclitaxel-induced cell cycle arrest by measuring accumulation at G2/M phase at 5 to 10 uM after 24 hrs by RNase/propidium iodide staining based flow cytometry
[4] = molecular target: T1, ATP-dependent translocase ABCB1; experiment: Reversal of P-gp-mediated multidrug resistance in human KBV cells assessed as potentiation of paclitaxel-induced apoptosis after 24 hrs by RNase/propidium iodide staining based flow cytometry; type: cell-based
[5] = molecular target: T1, ATP-dependent translocase ABCB1; experiment: Inhibition of P-gp-mediated Rh-123 efflux in human KBV cells assessed as Rh-123 accumulation at 10 uM preincubated for 2 hrs followed by Rh-123 addition measured after 30 mins by flow cytometry; type: cell-based; details: 0.5 h
[6] = molecular target: T1, ATP-dependent translocase ABCB1; experiment: Inhibition of P-gp-mediated Flutax1 efflux in human KBV cells assessed as Flutax1 accumulation at 2 to 10 uM preincubated for 3 hrs followed by Flutax1 addition measured after 1 hr by flow cytometry; type: cell-based
Homo sapiens = species on record: Homo sapiens; experiment: Downregulation of P-gp protein expression in human KBV cells at 5 to 10 uM after 24 hrs by western blot analysis; type: functional, cell-based
[7] = molecular target: T1, ATP-dependent translocase ABCB1; experiment: Stimulation of P-gp ATPase activity (unknown origin) assessed as increase in ATP consumption at 0.5 to 1 mM preincubated for 5 mins followed by Mg-ATP addition by P-gp-Glo luminescence assay

T1 sequence (P08183 whole entry): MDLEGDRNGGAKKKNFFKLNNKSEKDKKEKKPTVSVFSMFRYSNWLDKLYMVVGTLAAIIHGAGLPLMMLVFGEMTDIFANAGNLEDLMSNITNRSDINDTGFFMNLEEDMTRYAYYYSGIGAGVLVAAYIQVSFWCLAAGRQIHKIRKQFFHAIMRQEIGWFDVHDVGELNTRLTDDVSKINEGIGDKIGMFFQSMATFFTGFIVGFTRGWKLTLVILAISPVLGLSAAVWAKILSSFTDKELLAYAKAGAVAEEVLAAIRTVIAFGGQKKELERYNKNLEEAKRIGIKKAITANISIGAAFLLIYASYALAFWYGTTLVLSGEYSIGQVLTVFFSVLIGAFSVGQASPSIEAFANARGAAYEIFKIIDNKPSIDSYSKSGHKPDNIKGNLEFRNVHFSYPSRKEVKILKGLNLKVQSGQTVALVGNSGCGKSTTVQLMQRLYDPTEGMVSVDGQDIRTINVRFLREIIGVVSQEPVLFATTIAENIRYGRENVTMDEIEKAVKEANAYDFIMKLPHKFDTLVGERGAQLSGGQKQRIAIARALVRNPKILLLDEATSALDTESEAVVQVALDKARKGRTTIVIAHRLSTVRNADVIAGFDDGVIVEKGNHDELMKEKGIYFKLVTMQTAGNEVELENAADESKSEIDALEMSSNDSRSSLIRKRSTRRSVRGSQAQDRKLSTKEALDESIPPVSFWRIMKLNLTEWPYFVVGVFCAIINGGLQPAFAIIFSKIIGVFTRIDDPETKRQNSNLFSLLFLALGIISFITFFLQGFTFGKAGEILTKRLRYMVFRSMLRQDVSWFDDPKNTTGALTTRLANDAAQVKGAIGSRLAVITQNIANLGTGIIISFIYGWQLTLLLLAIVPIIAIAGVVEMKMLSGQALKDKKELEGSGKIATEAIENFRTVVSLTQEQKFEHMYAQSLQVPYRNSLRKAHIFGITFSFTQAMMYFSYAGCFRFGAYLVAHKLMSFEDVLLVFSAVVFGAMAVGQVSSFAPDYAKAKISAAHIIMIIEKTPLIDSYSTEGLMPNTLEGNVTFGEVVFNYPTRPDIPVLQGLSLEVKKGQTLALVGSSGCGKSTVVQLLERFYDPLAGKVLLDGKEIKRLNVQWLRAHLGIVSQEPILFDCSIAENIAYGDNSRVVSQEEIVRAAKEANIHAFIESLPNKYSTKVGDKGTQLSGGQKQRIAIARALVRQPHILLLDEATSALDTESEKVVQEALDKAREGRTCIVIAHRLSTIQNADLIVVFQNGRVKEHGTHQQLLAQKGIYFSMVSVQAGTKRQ

Compound | Survival [1] | viability at 72 h, 5 µM [2] | also measured
CC(=O)O[C@H]1C[C@@]2(C)[C@@H](C[C@@H](O)[C@H]3[C@@]4(C)CC[C@@H](OC(=O)c5ccccc5C(=O)N5CCCCC5)[C@@H](C)[C@@H]4CC[C@@]32C)/C1=C(\CCC=C(C)C)C(=O)OCc1ccccc1 | 36.37% | 110% | 
CC(=O)O[C@H]1C[C@@]2(C)[C@@H](C[C@@H](O)[C@H]3[C@@]4(C)CC[C@@H](OC(=O)c5ccccc5C(=O)N5CCN(C)CC5)[C@@H](C)[C@@H]4CC[C@@]32C)/C1=C(\CCC=C(C)C)C(=O)OCc1ccccc1 | 69.5% | 100% | 
CC(=O)O[C@H]1C[C@@]2(C)[C@@H](CC(=O)[C@H]3[C@@]4(C)CC[C@@H](OC(=O)CCCCO[N+](=O)[O-])[C@@H](C)[C@@H]4CC[C@@]32C)/C1=C(\CCC=C(C)C)C(=O)OCc1ccccc1 | 20.75% | 112% | 
CC(=O)O[C@H]1C[C@@]2(C)[C@@H](C[C@@H](O)[C@H]3[C@@]4(C)CC[C@@H](OC(=O)c5ccccc5C(=O)Nc5ccc(N)cc5)[C@@H](C)[C@@H]4CC[C@@]32C)/C1=C(\CCC=C(C)C)C(=O)OCc1ccccc1 | 23.58% | 118% | 
CC(=O)O[C@H]1C[C@@]2(C)[C@@H](C[C@@H](O)[C@H]3[C@@]4(C)CC[C@@H](OC(=O)c5ccccc5C(=O)Oc5ccc(CCO[N+](=O)[O-])cc5)[C@@H](C)[C@@H]4CC[C@@]32C)/C1=C(\CCC=C(C)C)C(=O)OCc1ccccc1 | 75.04% | 87.5% | 
CC(=O)O[C@H]1C[C@@]2(C)[C@@H](C[C@@H](O)[C@H]3[C@@]4(C)CC[C@@H](OC(=O)CCC(=O)N5CCCCC5)[C@@H](C)[C@@H]4CC[C@@]32C)/C1=C(\CCC=C(C)C)C(=O)OCc1ccccc1 | 35.31% | 122% | 
CC(=O)O[C@H]1C[C@@]2(C)[C@@H](C[C@@H](O)[C@H]3[C@@]4(C)CC[C@@H](O)[C@@H](C)[C@@H]4CC[C@@]32C)/C1=C(\CCC=C(C)C)C(=O)OCc1ccccc1 | 18.6% | 92% | Activity [3]: Active; Activity [4]: Active; inhibition (INH) [5]: Active; inhibition (INH) [6]: Active; Activity (Homo sapiens): inactive; Activity [7]: Active
CC(=O)O[C@H]1C[C@@]2(C)[C@@H](C[C@@H](O)[C@H]3[C@@]4(C)CC[C@@H](OC(=O)CCCCCO[N+](=O)[O-])[C@@H](C)[C@@H]4CC[C@@]32C)/C1=C(\CCC=C(C)C)C(=O)OCc1ccccc1 | 20.79% | 94.1% | 
CC(=O)O[C@H]1C[C@@]2(C)[C@@H](CC(=O)[C@H]3[C@@]4(C)CCC(=O)[C@@H](C)[C@@H]4CC[C@@]32C)/C1=C(\CCC=C(C)C)C(=O)OCc1ccccc1 | 27.6% | 96.6% | 
CC(=O)O[C@H]1C[C@@]2(C)[C@@H](C[C@@H](O)[C@H]3[C@@]4(C)CC[C@@H](OC(=O)CCC(=O)N5CCN(C)CC5)[C@@H](C)[C@@H]4CC[C@@]32C)/C1=C(\CCC=C(C)C)C(=O)OCc1ccccc1 | 33.67% | 30.1% | 
CC(=O)O[C@H]1C[C@@]2(C)[C@@H](C[C@@H](O)[C@H]3[C@@]4(C)CC[C@@H](OC(=O)c5ccccc5C(=O)N5CCOCC5)[C@@H](C)[C@@H]4CC[C@@]32C)/C1=C(\CCC=C(C)C)C(=O)OCc1ccccc1 | 37.96% | 76% | 
COc1ccc(CCN(C)CCCC(C#N)(c2ccc(OC)c(OC)c2)C(C)C)cc1OC (stereo not given) [VERAPAMIL] | 23.05% |  | 
CC(=O)O[C@H]1C[C@@]2(C)[C@@H](C[C@@H](O)[C@H]3[C@@]4(C)CC[C@@H](OC(=O)CCC(=O)Nc5ccc(N)cc5)[C@@H](C)[C@@H]4CC[C@@]32C)/C1=C(\CCC=C(C)C)C(=O)OCc1ccccc1 | 22.26% | 136% | 
CC(=O)O[C@H]1C[C@@]2(C)[C@@H](C[C@@H](O)[C@H]3[C@@]4(C)CC[C@@H](OC(=O)c5ccccc5C(=O)OCCc5ccc(OCCO[N+](=O)[O-])cc5)[C@@H](C)[C@@H]4CC[C@@]32C)/C1=C(\CCC=C(C)C)C(=O)OCc1ccccc1 | 90.45% | 85.9% | 
CC(=O)O[C@H]1C[C@@]2(C)[C@@H](C[C@@H](O)[C@H]3[C@@]4(C)CC[C@@H](OC(=O)CCC(=O)OCCc5ccc(OCCO[N+](=O)[O-])cc5)[C@@H](C)[C@@H]4CC[C@@]32C)/C1=C(\CCC=C(C)C)C(=O)OCc1ccccc1 | 101.31% | 110% | 
CC(=O)O[C@H]1C[C@@]2(C)[C@@H](C[C@@H](O)[C@H]3[C@@]4(C)CC[C@@H](OC(=O)c5ccccc5C(=O)Nc5cccc(N)c5)[C@@H](C)[C@@H]4CC[C@@]32C)/C1=C(\CCC=C(C)C)C(=O)OCc1ccccc1 | 29.28% | 95.8% | 
CC(=O)O[C@H]1C[C@@]2(C)[C@@H](C[C@@H](O)[C@H]3[C@@]4(C)CC[C@@H](OC(=O)CCC(=O)N5CCOCC5)[C@@H](C)[C@@H]4CC[C@@]32C)/C1=C(\CCC=C(C)C)C(=O)OCc1ccccc1 | 31.93% | 20.5% | 
CC(=O)O[C@H]1C[C@@]2(C)[C@@H](C[C@@H](O)[C@H]3[C@@]4(C)CC[C@@H](O)[C@@H](C)[C@@H]4CC[C@@]32C)/C1=C(\CCC=C(C)C)C(=O)O [FUSIDIC ACID] | 87.77% | 84.7% | 
CC(=O)O[C@H]1C[C@@]2(C)[C@@H](CC(=O)[C@H]3[C@@]4(C)CC[C@@H](OC(=O)CCCCCO[N+](=O)[O-])[C@@H](C)[C@@H]4CC[C@@]32C)/C1=C(\CCC=C(C)C)C(=O)OCc1ccccc1 | 62.17% | 115% | 
CCN1CCN(C(=O)CCC(=O)O[C@@H]2CC[C@@]3(C)[C@@H](CC[C@@]4(C)[C@H]3[C@H](O)C[C@H]3/C(=C(\CCC=C(C)C)C(=O)OCc5ccccc5)[C@@H](OC(C)=O)C[C@@]34C)[C@@H]2C)CC1 | 34.43% | 99.8% | 
CC(=O)O[C@H]1C[C@@]2(C)[C@@H](C[C@@H](O)[C@H]3[C@@]4(C)CC[C@@H](O)[C@@H](C)[C@@H]4CC[C@@]32C)/C1=C(\CCC=C(C)C)C(=O)Oc1ccc(CCO[N+](=O)[O-])cc1 | 45.82% | 83.7% | 
CCN1CCN(C(=O)c2ccccc2C(=O)O[C@@H]2CC[C@@]3(C)[C@@H](CC[C@@]4(C)[C@H]3[C@H](O)C[C@H]3/C(=C(\CCC=C(C)C)C(=O)OCc5ccccc5)[C@@H](OC(C)=O)C[C@@]34C)[C@@H]2C)CC1 | 20.76% | 27.3% | 
CC(=O)O[C@H]1C[C@@]2(C)[C@@H](C[C@@H](O)[C@H]3[C@@]4(C)CC[C@@H](OC(=O)CCC(=O)Nc5cccc(N)c5)[C@@H](C)[C@@H]4CC[C@@]32C)/C1=C(\CCC=C(C)C)C(=O)OCc1ccccc1 | 24.8% | 135% | 
CC(=O)O[C@H]1C[C@@]2(C)[C@@H](C[C@@H](O)[C@H]3[C@@]4(C)CC[C@@H](OC(=O)CCCCO[N+](=O)[O-])[C@@H](C)[C@@H]4CC[C@@]32C)/C1=C(\CCC=C(C)C)C(=O)OCc1ccccc1 | 96.92% | 107% | 
CC(=O)O[C@H]1C[C@@]2(C)[C@@H](C[C@@H](O)[C@H]3[C@@]4(C)CC[C@@H](OC(=O)CCC(=O)Oc5ccc(CCO[N+](=O)[O-])cc5)[C@@H](C)[C@@H]4CC[C@@]32C)/C1=C(\CCC=C(C)C)C(=O)OCc1ccccc1 | 99.95% | 114% | 
